In article PMC4911292 (Clinical cancer research : an official journal of the …, 2016):

What was measured:
[1] = set-up: species or system human; settings: in vivo
[2] = system: pretreated metastatic breast cancer; settings: single agent; cited from earlier work
[3] = cited from earlier work
[4] = Veliparib pharmacokinetics in plasma and urine; type: in vivo, human
[5] = system: germline BRCA mutation-associated cancer; settings: monotherapy throughout a 28-day cycle; cited from earlier work
[6] = system: advanced triple-negative breast cancer and/or BRCA mutation-associated breast cancer; assay: Preliminary efficacy; type: in vivo, human; settings: veliparib with cisplatin and vinorelbine
P-glycoprotein (P-gp) = settings: cited from earlier work
CYP enzymes = settings: cited from earlier work
[7] = system: patients with recurrent and/or metastatic TNBC and/or BRCA mutation-associated breast cancer
PARP = settings: at lower doses; cited from earlier work
[8] = germline BRCA1 and BRCA2 wild-type, n=26
[9] = germline BRCA1 or BRCA2 mutation positive, n=14
[10] = N=50, veliparib with cisplatin and vinorelbine, any time during study
[11] = veliparib monotherapy, 23 patients
[12] = veliparib with cisplatin and vinorelbine, N=50

In the case of N.N.[Cl][Pt][Cl] [cisplatin], the “Median C4/C1 ratio for ultrafilterable platinum AUC0-24” value [1] is listed as 0.98, the “Median C4/C1 ratio for ultrafilterable platinum Cmax” value [1] is listed as 0.99 and the Response rate [2] is listed as “less than 10%”.
For CCC1=C[C@@H]2CN(C1)Cc1c([nH]c3ccccc13)[C@@](C(=O)OC)(c1cc3c(cc1OC)N(C)[C@H]1[C@@](O)(C(=O)OC)[C@H](OC(C)=O)[C@]4(CC)C=CCN5CC[C@]31[C@@H]54)C2 [vinorelbine], the “Renal excretion, share of the administered dose” value [3] is given as “approximately 10%”.
With C[C@]1(c2nc3c(C(N)=O)cccc3[nH]2)CCCN1 [veliparib] the “Proportion of the first dose excreted in the urine over 12 hours (median)” value ([4]; cycle 1, N=20) was 61.7%, the “Proportion of the first dose excreted in the urine over 12 hours (median)” value ([4]; cycle 4, N=20) was 66.7% and the “Median C4/C1 ratio of Cmax” value ([4]; cycle 4 day 1 vs cycle 1 day 0, N=32, range 0.36-2.00) was 0.85. The “Median C4/C1 ratio of AUC0-6” value ([4]; cycle 4 day 1 vs cycle 1 day 0, N=32, range 0.44-1.64) was 0.82, the “Current RP2D as monotherapy” value [5] was 400 mg BID and the “Best overall response: complete response” value ([6]; 48 patients) was 4%. The “Progressive disease as best response or not assessed due to disease or toxicity” value ([6]; 48 patients) was 21%, the “Stable disease as best response” value ([6]; 48 patients) was 44% and the “Overall response rate (CR+PR, confirmed)” value ([6]; 48 patients, 95% CI 23%-50%) was 35%. The “Response (CR+PR)” value ([6]; BRCA mutation present) was 57%, the Median progression-free survival ([6]; all 50 patients, 95% CI 4.1-6.7) was 5.5 months and the Median overall survival ([6]; all patients, 95% CI 8.1-20.7) was 9.6 months. The “Best overall response: Complete response (CR)” value (shortened to “Best overall response … (CR)”) [6, 8] was 1 (4%) n(%), the “Best overall response: Partial response (PR)” value (“Best overall response … (PR)” below) [6, 8] was 7 (27%) n(%) and the “Best overall response: Progressive disease (PD)” value (shortened to “Best overall response … (PD)”) [6, 8] was 6 (23%) n(%). The “Best overall response … (CR)” value [6, 9] was 1 (7%) n(%), the “Best overall response … (PR)” value [6, 9] was 7 (50%) n(%) and the “Best overall response … (PD)” value [6, 9] was 1 (7%) n(%). The “Clinical benefit (PFS6) rate” value [6, 9] was 10 (71%) n(%), the “Median OS” value ([6]; germline BRCA mutation) was 22.6 months and the “Median PFS” value ([6]; germline BRCA mutation) was 9.2 months. For the same compound, the “6-month progression-free survival (PFS6)” value ([6]; germline BRCA mutation absent) was 30%, the “6-month progression-free survival (PFS6)” value ([6]; germline BRCA mutation present) was 71% and the “Median PFS” value ([6]; germline BRCA wild-type) was 4.2 months. The “Best overall response … (CR)” value ([6]; total, n=48) was 2 (4%) n(%), the “Best overall response … (PR)” value ([6]; total, n=48) was 15 (31%) n(%) and the “Best overall response … (PD)” value ([6]; total, n=48) was 10 (21%) n(%). For the same compound, the “Best overall response … (PR)” value ([6]; unknown mutation status, n=8) was 1(12%) n(%), the “Best overall response … (PD)” value ([6]; unknown mutation status, n=8) was 3 (38%) n(%) and the “Clinical benefit (PFS6) rate” value ([6]; unknown mutation status, n=8) was 2 (25%) n(%). The “Median OS” value ([6]; unknown mutational status) was 6.2 months, the “Median PFS” value ([6]; unknown mutational status) was 4.0 months and the “Inhibition or induction of P-gp” value (P-glycoprotein (P-gp)) was “does not appear to inhibit or induce P-gp”. For the same compound, the P-gp substrate status (P-glycoprotein (P-gp)) was “weak P-glycoprotein (P-gp) substrate”, the “Inhibition or induction of major CYP enzymes” value (CYP enzymes) was “does not appear to inhibit or induce the activity of major CYP enzymes” and the “Share of oral clearance accounted for by CYP2D6” value (CYP enzymes) was ~ 18%. The “Share of oral clearance accounted for by additional liver metabolism” value (CYP enzymes) was 10%, the Dose limiting toxicity ([7]; 40 mg dose level, with cisplatin and vinorelbine, one patient, bone marrow involvement of breast cancer) was “grade 4 thrombocytopenia” and the “Anemia, All grades” value [7, 10] was 32 (64%) N (%). The “Anorexia, All grades” value [7, 10] was 17 (34%) N (%), the “Dehydration, All grades” value [7, 10] was 17 (34%) N (%) and the “Dyspepsia, All grades” value [7, 10] was 11 (22%) N (%). For the same compound, the “Fatigue, All grades” value [7, 10] was 40 (80%) N (%), the “Hypokalemia, All grades” value [7, 10] was 13 (26%) N (%) and the “Nausea, All grades” value [7, 10] was 43 (86%) N (%). The “Neutrophil count decreased, All grades” value [7, 10] was 31 (62%) N (%), the “Peripheral sensory neuropathy, All grades” value [7, 10] was 21 (42%) N (%) and the “Platelet count decreased, All grades” value [7, 10] was 33 (66%) N (%). The “Tinnitus, All grades” value [7, 10] was 26 (52%) N (%), the “Vomiting, All grades” value [7, 10] was 21 (42%) N (%) and the “Recommended phase II dose (RP2D)” value ([7]; in combination with cisplatin and vinorelbine) was 300 mg BID. The “Patients reporting AEs on monotherapy” value ([7]; veliparib monotherapy) was “Six of 23”, the “Dyspepsia, any grade” value [7, 11] was 17% and the “Nausea, any grade” value [7, 11] was 17%. For the same compound, the “Vomiting, any grade” value [7, 11] was 17%, the “Grade 3/4 anemia” value [7, 12] was 30% and the “Grade 3/4 neutropenia” value [7, 12] was 36%. The “Grade 3/4 thrombocytopenia” value [7, 12] was 12% and the “PARP inhibition by PAR assay” value (PARP) was 90%.
